Like-named read-outs stand apart in the source and are kept apart here.
Tests used:
PDGFRβ = PDGFRβ (Rattus norvegicus (Rat), UniProt Q05030); assay: PDGFRβ Cellular Assay (PDGFRb P-Y751 HTRF in A10 cells stimulated with PDGF-BB); format: cell-based
Experimental: (§1) II. Methods and Procedures
Cell Culture and Preparation: Cells are cultured according to ATCC procedure (5) with the addition of the antibiotic penicillin-streptomycin. If working from frozen, cells should be thawed according to ATCC procedure. Depending on the cell density of frozen vial, cells will need time to recover from thaw. An 80% confluent T75 flask should be enough for one 384 well plate.
Stock Solutions: Rat PDGFBB. A 100 ug/mL stock is prepared by reconstituting 50 ug in 500 uL of 4 mM HCl and 0.1% BSA. It can be stored for a month at 4° C., or aliquoted out and frozen in the −20/−80° C. to avoid multiple free-thaw cycles.
(§2) Freshly Prepared Solutions:
1× Cisbio cell lysis buffer. The cell lysis buffer is diluted 4-fold with molecular grade water. The blocking agent is then diluted 25-fold in the diluted lysis buffer.
Antibody solutions. Equal amounts d2 and cryptate antibody are diluted 20-fold in detection buffer.
Rat PDGFBB. A working stock of 100 ng/mL is created from the stock solution in 10% FBS culture media.
Step 1: Plating Cells: Media from the A10 cell flask is aspirated. The cells are rinsed with PBS and then trypsinized to disperse the cell layer. The cells are then pelleted are resuspended to 1.25e5 cells/mL. […] Plates are covered and placed in the incubator (37° C. 5% CO2) overnight to allow cells to adhere.
Step 2: Compound Dispense: Approximately 18 hours after plating, dispense 40 nL compound onto cells using Echo. Column 12 is the neutral control DMSO, column 24 is the inhibitor control 10 mM Imatinib (10 uM final assay concentration). The plate is returned to the incubator for 3 hours.
After 10 minutes the media is removed by flicking the plate.
Step 4: Cell lysis and antibody addition: 20 uL lysis buffer per well is added to the plate via Tempest. 5 uL antibody solution is added per well via the Tempest. The plate is placed on the shaker at 230 rpm for 1 hour at room temperature.
Step 5: Detection: The plate is read using the HTRF module on the BMG Pherastar. Data is analyzed using Genedata Screener.
(§3) III. Calculations and Formulas
% Inhibition: % Inhibition=(NC−sample)/(NC−PC)*100 where NC is the mean of negative control (reactions without inhibitor), and PC is the mean of positive control (10 μM imatinib).
IC50 values are determined from a 4-parameter fit, using the following equation: Y=Bottom+(Top−Bottom)/(1+10((Log IC50−X)*Hill slope)), where X=log10 of the compound concentration; top can be defined by PC; bottom defined by NC.

VEGFR2, unphosphorylated = VEGFR2, unphosphorylated (Homo sapiens (Human), UniProt P35968); assay: VEGFR ADP GLO Assay; format: biochemical
Experimental: as §1
Assay buffer stock contains 50 mM HEPES pH7.5, 10 mM MgCl2, 0.01% Brij-35, and 1 mM EGTA.
Unphosphorylated VEGFR2. […] Store at −80° C. in aliquots.
Sonicate 10 mg/ml Srctide solution for 10 minutes and then vacuum filter.
Freshly Prepared Solutions
2× kinase solution. Make a working solution of 10 nM unphosphorylated VEGFR2 in Assay buffer. Vacuum filter 2× kinase solution prior to running assay. Keep on ice until use.
2× substrate/ATP solution. Make a working solution of 2 mg/mL srctide and 2.4 mM ATP in Assay buffer. Keep on ice until use.
Step 1. Dispensing inhibitors/controls: Using Echo, dispense 10 nL/well compound serial dilutions in DMSO to columns 1-22 (in 384-well plates) or columns 1-44 (in 1536-well plates). Dilution series=11 pt, 3-fold dilutions. The top compound concentration in the source plate is 4 mM. The top compound concentration in the assay plate is 10 uM. Using Echo, dispense 10 nl/well DMSO to column 23 (in 384-well plates) or columns 45-47 (in 1536-well plates). […] These wells will serve as positive control wells.
Step 2. Pre-incubation of inhibitors with kinase: Add 2 μL/well 2× kinase solution. Centrifuge at 1000 rpm for 1 min. Incubate at room temperature for 30 min.
Step 3. Kinase cascade reaction: Add 2 μL/well 2× substrate/ATP solution to initiate kinase reactions. Centrifuge at 1000 rpm for 1 min. Incubate at room temperature for 180 min.
Final concentrations of components in the assay:
Step 4. Quench: Add 2 uL/well ADP Glo Reagent+0.05% CHAPS. Centrifuge at 1000 rpm for 1 min; Incubate at room temperature for one hour.
Step 5. Detection: Add 2 uL/well Kinase Detection Reagent+0.05% CHAPS. Centrifuge at 1000 rpm for 1 min; Incubate at room temperature for 1 hour; Read Luminescence on a plate reader.
as §3
IC50 values are determined from a 4-parameter fit, using the following equation: Y=Bottom+(Top−Bottom)/(1+10^(Log IC50-X)*Hill slope) where X=log10 of the compound concentration; top can be defined by PC; bottom defined by NC.

[1] = target: His6-TEV-PDGFRβ (557-1016) (Homo sapiens (Human), UniProt P09619); assay: PDGFRβ HTRF Assay; format: biochemical; conditions: read-out: PDGFR HTRF IC50
Experimental: Instrumentation: a. Compound liquid handling: LabCyte Echo; b. Reagent liquid handling: Thermo Scientific Multidrop Combi; c. BMG PHERAStar multilabel plate reader.
Protein Reagent: His6-TEV-PDGFRβ Protein Prep prepared at Accelagen.
as §1
Assay buffer stock solution, contains 50 mM Hepes, 10 mM MgCl2, 1 mM EGTA, and 0.01% Brij-35, 0.01% ovalbumin, 2 mM DTT at pH 7.5, in molecular biology grade water. Store at room temperature.
DTT, 2 M in molecular biology grade water, store at −20° C. in aliquots.
Ovalbumin, 10% or 100 mg/mL, prepare fresh on experimental day.
PDGFRβ, 116 μM (PDGFRb_08 Prep 02), produced at Accelagen. Store at −80° C. in aliquots.
TK-biotin peptide, […] in molecular biology grade water, store at −20° C. in aliquots.
ATP, 100 mM in molecular biology grade water, store at −20° C. in aliquots.
HTRF KinEASE-TK kit: Allow the contents of the Cisbio kit to warm up to room temperature before use. This kit contains HTRF detection buffer, TK-Antibody labeled with Eu^3+-cryptate, TK-substrate biotin and Streptavidin-XL665.
TK Substrate-Biotin, reconstitute 500 μg lyopholized with 574 μL molecular biology grade water to prepare a 500 μM stock; After use, aliquot the rest and store at −20° C.
TK Antibody-Cryptate, reconstitute lyophilized with 1 mL of molecular biology grade water (100× solution) then add 99 mL detection buffer to prepare a ready to use TK-antibody-cryptate solution; the concentration of the TK-antibody-cryptate reagent is not known. After use, aliquot the rest and store at −20° C.
Streptavidin-XL665, reconstitute 3 mg lyophilized with 3 mL molecular biology grade water to prepare a 1 mg/mL or 16.67 μM stock; MW=60 kDa; After use, aliquot the rest and store at −20° C.
as §2
Assay buffer. Dilute 5× Kinase buffer 5-fold with molecular biology grade water and add DTT to 2 mM and ovalbumin to 0.1 mg/mL (or 0.01%).
2× protein solution. Make a working solution of […] PDGFRβ in assay buffer. Keep on ice until use to maintain enzyme stability.
2× substrate solution. Make a working solution of 1.6 mM ATP and 1 μM TK-substrate biotin peptide in assay buffer.
3× quench/detection solution. Make a working solution of 0.1875 μM SA-XL665 and the TK-antibody cryptate diluted by 12 of total quench/detection volume in assay buffer.
Keep final streptavidin/biotin ratio at 1 to 8.
Example of 3× quench/detection solution preparation: 8 mL total volume.
TK antibody-cryptate in detection buffer—4000 μL
The kinase reaction is stopped by the addition of the detection reagents which contain EDTA (detection step).
Assay in white ProxiPlate 384-well
Step 1. Dispensing inhibitors/DMSO and low control: Using the ECHO 555 acoustic dispenser, spot desired compound serial dilutions in DMSO, NEAT DMSO to represent the uninhibited enzyme control, and 10 μM final [imatinib] to the represent the 100% inhibited enzyme control
Step 2. PDGFRβ E+I pre-incubation: Add 2 μL 2× protein solution to columns 1-24 using the Multidrop Combi. Centrifuge at 1000 rpm for 1 min. Incubate 30 min at RT
Step 2. Enzymatic reaction: Add 2 μL substrate solution to columns 1-24 to initiate the reaction using the Multidrop Combi; cover/seal the assay plate to reduce evaporation. Centrifuge at 1000 rpm for 1 min. Incubate at room temperature for 3 hours.
Step 3. Quench/Detection: Add 2 μl 3× quench/detection solution to columns 1-24 using the Multidrop Combi; cover/seal the plate. Centrifuge 1 min 1000 rpm. Incubate at RT for 60 min. Read the plate in PHERAstar (or similar instrument) on HTRF setting at excitation 337 nm—dual emission—665/620 nm ratio.
as §3
HTRF ratio values calculated by the instrument (Ratio is acceptor counts/donor counts*10,000) is exported from the plate reader and used in data analysis. […] Assay statistics can include Robust Z′ and Signal to Background.
% Inhibition Calculation: Percent inhibition will be calculated for sample wells based on the equation: […]

PDGFRβ, sequence (Q05030 32-1097): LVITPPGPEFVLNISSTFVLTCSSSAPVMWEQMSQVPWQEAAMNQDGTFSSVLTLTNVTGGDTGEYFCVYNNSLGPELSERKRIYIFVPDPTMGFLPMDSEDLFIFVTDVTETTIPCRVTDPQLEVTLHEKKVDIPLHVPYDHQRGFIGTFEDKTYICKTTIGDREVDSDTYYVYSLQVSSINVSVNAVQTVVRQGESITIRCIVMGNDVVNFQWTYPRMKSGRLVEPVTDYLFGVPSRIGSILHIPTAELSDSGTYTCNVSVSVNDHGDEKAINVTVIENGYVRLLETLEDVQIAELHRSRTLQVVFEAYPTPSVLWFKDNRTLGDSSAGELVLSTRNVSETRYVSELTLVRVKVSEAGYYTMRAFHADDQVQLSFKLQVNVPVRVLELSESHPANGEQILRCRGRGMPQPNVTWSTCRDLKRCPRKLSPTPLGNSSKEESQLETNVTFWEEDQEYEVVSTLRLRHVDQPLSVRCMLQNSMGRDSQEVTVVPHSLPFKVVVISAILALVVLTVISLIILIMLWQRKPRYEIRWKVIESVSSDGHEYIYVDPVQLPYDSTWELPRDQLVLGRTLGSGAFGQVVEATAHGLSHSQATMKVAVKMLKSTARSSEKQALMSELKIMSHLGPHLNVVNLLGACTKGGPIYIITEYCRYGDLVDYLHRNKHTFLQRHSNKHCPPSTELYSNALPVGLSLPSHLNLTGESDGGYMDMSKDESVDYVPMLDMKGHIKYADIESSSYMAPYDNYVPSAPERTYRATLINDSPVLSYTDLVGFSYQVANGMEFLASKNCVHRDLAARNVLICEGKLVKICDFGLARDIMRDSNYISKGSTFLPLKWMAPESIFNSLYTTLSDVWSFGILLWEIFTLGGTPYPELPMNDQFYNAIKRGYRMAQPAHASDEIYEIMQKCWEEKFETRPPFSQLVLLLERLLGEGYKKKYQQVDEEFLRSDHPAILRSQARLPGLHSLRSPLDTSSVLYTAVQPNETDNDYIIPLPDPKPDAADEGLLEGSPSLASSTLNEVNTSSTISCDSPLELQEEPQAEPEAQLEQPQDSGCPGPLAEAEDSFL
VEGFR2, unphosphorylated, sequence (P35968 20-1356): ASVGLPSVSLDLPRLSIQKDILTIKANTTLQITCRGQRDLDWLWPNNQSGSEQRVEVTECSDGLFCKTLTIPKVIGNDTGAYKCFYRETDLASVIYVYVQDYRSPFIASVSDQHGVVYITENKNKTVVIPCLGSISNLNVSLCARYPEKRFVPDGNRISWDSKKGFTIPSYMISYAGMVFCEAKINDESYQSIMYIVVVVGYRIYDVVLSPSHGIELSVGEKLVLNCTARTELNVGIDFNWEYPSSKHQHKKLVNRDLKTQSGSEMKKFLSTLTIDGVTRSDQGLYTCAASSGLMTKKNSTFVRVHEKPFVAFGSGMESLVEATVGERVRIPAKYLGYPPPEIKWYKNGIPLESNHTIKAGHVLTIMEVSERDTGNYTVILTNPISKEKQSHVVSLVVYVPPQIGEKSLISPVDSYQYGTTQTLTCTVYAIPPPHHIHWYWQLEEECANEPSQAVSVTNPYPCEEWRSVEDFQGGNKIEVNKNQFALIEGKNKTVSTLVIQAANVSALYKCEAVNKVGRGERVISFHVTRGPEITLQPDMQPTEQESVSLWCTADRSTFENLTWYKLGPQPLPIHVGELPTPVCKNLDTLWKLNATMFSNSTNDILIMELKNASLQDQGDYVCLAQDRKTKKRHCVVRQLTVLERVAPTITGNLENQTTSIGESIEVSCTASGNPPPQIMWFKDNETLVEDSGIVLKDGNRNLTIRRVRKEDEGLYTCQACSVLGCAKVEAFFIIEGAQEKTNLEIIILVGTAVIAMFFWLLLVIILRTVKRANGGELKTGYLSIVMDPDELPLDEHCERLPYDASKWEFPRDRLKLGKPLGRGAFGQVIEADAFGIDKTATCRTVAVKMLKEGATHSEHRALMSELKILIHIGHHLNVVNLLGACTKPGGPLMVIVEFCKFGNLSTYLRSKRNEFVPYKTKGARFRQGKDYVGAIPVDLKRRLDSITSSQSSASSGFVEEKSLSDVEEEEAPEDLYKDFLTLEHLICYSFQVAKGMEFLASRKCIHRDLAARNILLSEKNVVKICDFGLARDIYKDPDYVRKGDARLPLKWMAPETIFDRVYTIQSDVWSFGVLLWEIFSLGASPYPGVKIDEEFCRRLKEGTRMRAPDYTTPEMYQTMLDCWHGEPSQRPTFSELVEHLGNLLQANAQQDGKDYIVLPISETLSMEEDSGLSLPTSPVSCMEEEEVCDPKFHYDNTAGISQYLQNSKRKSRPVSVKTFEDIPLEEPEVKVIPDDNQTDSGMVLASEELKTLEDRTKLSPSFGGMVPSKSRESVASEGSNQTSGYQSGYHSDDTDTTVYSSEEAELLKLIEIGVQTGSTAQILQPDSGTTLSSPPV
His6-TEV-PDGFRβ (557-1016), sequence (P09619 557-1016): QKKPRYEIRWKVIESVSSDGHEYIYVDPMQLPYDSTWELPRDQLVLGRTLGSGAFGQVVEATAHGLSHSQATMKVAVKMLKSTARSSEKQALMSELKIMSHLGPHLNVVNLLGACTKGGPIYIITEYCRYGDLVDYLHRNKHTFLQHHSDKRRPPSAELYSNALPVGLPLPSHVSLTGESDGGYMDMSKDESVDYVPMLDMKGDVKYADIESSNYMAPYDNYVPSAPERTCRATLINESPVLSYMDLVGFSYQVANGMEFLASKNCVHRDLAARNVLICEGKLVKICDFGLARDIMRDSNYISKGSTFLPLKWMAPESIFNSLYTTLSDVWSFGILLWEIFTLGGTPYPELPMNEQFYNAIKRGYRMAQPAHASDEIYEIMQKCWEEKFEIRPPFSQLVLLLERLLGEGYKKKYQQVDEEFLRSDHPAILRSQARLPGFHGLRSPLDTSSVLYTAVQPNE

SMILES | IC50 (PDGFRβ; read-out: PDGFR Cellular IC50) | IC50 (VEGFR2, unphosphorylated) | IC50 (PDGFRβ; PDGFR Cellular IC50) | IC50 [1]
Cc1ncc(NC(=O)CN2CC(C)(C)C2)cc1NC(=O)c1cnn2cc(-c3c(C)noc3C)sc12 [Example 364, N-(5-(2-(3,3-dimethylazetidin-1-yl)acetamido)-2-methylpyridin-3-yl)-2-(3,5-dimethylisoxazol-4-yl)pyrazolo[5,1-b]thiazole-7-carboxamide] |  | > 7500 nM | 10.3 nM | 0.8 nM
COC1CCN(CC(=O)Nc2cnc(C)c(NC(=O)c3cnn4cc(-c5cn(C)nc5C)sc34)c2)C1 (stereo not drawn) [Example 439, 2-(1,3-Dimethyl-1H-pyrazol-4-yl)-N-(5-(2-(3-methoxypyrrolidin-1-yl)acetamido)-2-methylpyridin-3-yl)pyrazolo[5,1-b]thiazole-7-carboxamide] |  | > 7500 nM | 12.2 nM | 
Cc1cc(C(=O)NCCN2CCCC23CCCC3)sc1NC(=O)c1cnn2cc(-c3cnn(C)c3)sc12 [Example 196, N-(5-((2-(1-azaspiro[4.4]nonan-1-yl)ethyl)carbamoyl)-3-methylthiophen-2-yl)-2-(1-methyl-1H-pyrazol-4-yl)pyrazolo[5,1-b]thiazole-7-carboxamide] |  | > 7500 nM | 85.8 nM | 1.4 nM
COc1ncccc1-c1cn2ncc(C(=O)Nc3cc(NC(=O)CN4CC(OC)C4)cnc3C)c2s1 [Example 400, N-(5-(2-(3-methoxyazetidin-1-yl)acetamido)-2-methylpyridin-3-yl)-2-(2-methoxypyridin-3-yl)pyrazolo[5,1-b]thiazole-7-carboxamide] |  | > 7500 nM | 14.8 nM | 
COCCn1cc(-c2cn3ncc(C(=O)Nc4cc(NC(=O)CN5CC[C@@H](C)C5)cnc4C)c3s2)cn1 (single isomer, unassigned) [Example 327, (R*)-2-(1-(2-methoxyethyl)-1H-pyrazol-4-yl)-N-(2-methyl-5-(2-(3-methylpyrrolidin-1-yl)acetamido)pyridin-3-yl)pyrazolo[5,1-b]thiazole-7-carboxamide] | 9.9 nM | > 7500 nM |  | 
Cc1ncc(NC(=O)CN2CCC[C@@H]2C)cc1NC(=O)c1cnn2cc(-c3cn(C)nc3C)sc12 [Example 438, (S)-2-(1,3-dimethyl-1H-pyrazol-4-yl)-N-(2-methyl-5-(2-(2-methylpyrrolidin-1-yl)acetamido)pyridin-3-yl)pyrazolo[5,1-b]thiazole-7-carboxamide] |  | > 7500 nM | 3.7 nM | 
Cc1ncc(NC(=O)CN2CCC[C@H]2C)cc1NC(=O)c1cnn2cc(-c3cn(C)nc3C)sc12 [Example 440, (R)-2-(1,3-dimethyl-1H-pyrazol-4-yl)-N-(2-methyl-5-(2-(2-methylpyrrolidin-1-yl)acetamido)pyridin-3-yl)pyrazolo[5,1-b]thiazole-7-carboxamide] |  | > 7500 nM | 1.6 nM | 

More lines, main results first:

IC50 (PDGFRβ; read-out: PDGFR Cellular IC50) | SMILES | IC50 (VEGFR2, unphosphorylated) | IC50 (PDGFRβ; PDGFR Cellular IC50) | IC50 [1]
16 nM | COc1ncccc1-c1cn2ncc(C(=O)Nc3cc(NC(=O)CN4C[C@H](CO)O[C@@H](C)C4)cnc3C)c2s1 (stereo in doubt) [Example 381, N-(5-(2-(cis-2-(hydroxymethyl)-6-methylmorpholino)acetamido)-2-methylpyridin-3-yl)-2-(2-methoxypyridin-3-yl)pyrazolo[5,1-b]thiazole-7-carboxamide] | > 833 nM |  | 
10.3 nM | CCOC1CN(CC(=O)Nc2cnc(C)c(NC(=O)c3cnn4cc(-c5cccnc5OC)sc34)c2)C1 [Example 401] |  |  | 
7.1 nM | COCCn1cc(-c2cn3ncc(C(=O)Nc4cc(NC(=O)CN5CC[C@H](C)C5)cnc4C)c3s2)cn1 (single isomer, unassigned) [Example 328, (S*)-2-(1-(2-methoxyethyl)-1H-pyrazol-4-yl)-N-(2-methyl-5-(2-(3-methylpyrrolidin-1-yl)acetamido)pyridin-3-yl)pyrazolo[5,1-b]thiazole-7-carboxamide] | > 7500 nM |  | 

Source: patent publication US20240109917A1 (ACTELION PHARMACEUTICALS LTD, priority 2020, published 2024)
